From patent US10633419B2, “Immunomodulators” (BRISTOL-MYERS SQUIBB COMPANY, priority 2014, dated 2020)
Like-named read-outs stand apart in the source and are kept apart here. Positions of bridges follow the written chain, without caps; N, C: chain ends. Non-standard residues stand in square brackets, D forms with d. Residues, ends and D or L forms follow the SMILES beside them. *: point of attachment. Ala(1-CH2COOH-inden-3-yl) = N[C@@H](CC1=CC(CC(=O)O)c2ccccc21)C(=O)O; Trp(1-CH2COOH) = N[C@@H](Cc1cn(CC(=O)O)c2ccccc12)C(=O)O; X9 = O=C(O)CCCCCCCCCCCCCCCCC(=O)N[C@@H](CCN*)C(=O)O; NH(CH2)12COOH = O=C(O)CCCCCCCCCCCCN*; Hyp = O=C(O)[C@@H]1C[C@@H](O)CN1; NMeNle = CCCC[C@H](NC)C(=O)O; Pip = O=C(O)[C@@H]1CCCCN1; NMeA = CN[C@@H](C)C(=O)O; Aun = NCCCCCCCCCCC(=O)O; Dab = NCC[C@H](N)C(=O)O

Target: T1, PD-L1 (Homo sapiens, UniProt Q9NZQ7)
T1 construct: hPDL1(19-239)-TVMV-His; made in house; host or cells: HEK293T
Test: PD-1/PD-L1 Homogenous Time-Resolved Fluorescence (HTRF) binding assay (PD-1-Ig/PD-L1-His)
Settings: inhibition of PD-1-Ig binding to PD-L1-TVMV-His, read-out: HTRF IC50
Summary of the method: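 HTRF competition in dPBS with 0.1% BSA and 0.05% Tween-20: 20 nM PD-1-Ig added after 15 min compound pre-incubation with 10 nM PD-L1-His, then another 15 min. Signal (665/620 nm) after 30 min with APC anti-His (20 nM) and Eu anti-Ig (1 nM).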

T1 sequence (Q9NZQ7 with tags, fused parts or gaps): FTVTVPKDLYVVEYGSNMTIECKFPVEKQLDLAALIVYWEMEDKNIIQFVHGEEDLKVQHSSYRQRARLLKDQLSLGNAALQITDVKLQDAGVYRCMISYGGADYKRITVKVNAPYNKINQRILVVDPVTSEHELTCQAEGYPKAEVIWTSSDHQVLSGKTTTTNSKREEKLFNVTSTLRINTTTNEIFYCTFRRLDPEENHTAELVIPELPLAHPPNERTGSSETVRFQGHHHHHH

Row | IC50 (value given as range class) [nM] | IC50 (value given as number) [nM] | SMILES
1 | 0.3 to 9.9 | – | CCCC[C@H]1C(=O)N(C)[C@@H](CCCC)C(=O)N[C@@H](CC(C)C)C(=O)N[C@H](C(=O)NCC(=O)N[C@@H](CC(=O)NCC[C@H](NC(=O)CCCCCCCCCCCCCCCCC(=O)O)C(=O)O)C(=O)O)CSCC(=O)N[C@@H](Cc2ccc(OC)cc2)C(=O)N2CCCC[C@H]2C(=O)N[C@@H](CC(N)=O)C(=O)N2CCC[C@H]2C(=O)N[C@@H](Cc2c[nH]cn2)C(=O)N[C@@H](CCC(N)=O)C(=O)N2C[C@H](O)C[C@H]2C(=O)N[C@@H](Cc2c[nH]c3ccccc23)C(=O)N[C@@H](CCN)C(=O)N[C@@H](Cc2cn(CC(=O)O)c3ccccc23)C(=O)N1C [Example 13156] ({CH2CO}-Y(Me)[Pip]NPHQ[Hyp]W[Dab][Trp(1-CH2COOH)][NMeNle][NMeNle]LCGD(X9)-OH; thioether N-14)
2 | 100 to 1600 | – | CCCC[C@H]1C(=O)N(C)[C@@H](CCCC)C(=O)N[C@@H](CCC(=O)O)C(=O)N[C@H](C(=O)NCC(=O)N[C@@H](Cc2cn(CCOCCOCCOCCOCCOCCOCCOCCOCCOCCOCCOCCNC(=O)CC[C@H](NC(=O)CCCCCCCCCCCCCCCCC(=O)O)C(=O)O)nn2)C(=O)O)CSCC(=O)N[C@@H](Cc2ccc(O)cc2)C(=O)N2CCCC[C@H]2C(=O)N[C@@H](CC(N)=O)C(=O)N2CCC[C@H]2C(=O)N[C@@H](CN)C(=O)N[C@@H](CC(C)C)C(=O)N2C[C@H](O)C[C@H]2C(=O)N[C@@H](Cc2c[nH]c3ccccc23)C(=O)N[C@@H](CCN)C(=O)N[C@@H](Cc2cn(CC(=O)O)c3ccccc23)C(=O)N1C [Example 14106]

Further lines, the compound ahead of its results:

Row | SMILES | IC50 (value given as range class) [nM] | IC50 (value given as number) [nM]
3 | CCCC[C@H]1C(=O)N(C)[C@@H](CCCC)C(=O)N[C@@H](CC(C)C)C(=O)N[C@H](C(=O)NCC(=O)NCCCCCCCCCCC(=O)O)CSCC(=O)N[C@@H](Cc2ccc(O)cc2)C(=O)N(C)[C@@H](C)C(=O)N[C@@H](CC(N)=O)C(=O)N2CCC[C@H]2C(=O)N[C@@H](Cc2cnc[nH]2)C(=O)N[C@@H](CCC(=O)O)C(=O)N2C[C@H](O)C[C@H]2C(=O)N[C@@H](Cc2c[nH]c3ccccc23)C(=O)N[C@@H](CCN)C(=O)N[C@@H](CC2=CC(CC(=O)O)c3ccccc32)C(=O)N1C (some centres unmarked) [Example 11077] ({CH2CO}-Y[NMeA]NPHE[Hyp]W[Dab][Ala(1-CH2COOH-inden-3-yl)][NMeNle][NMeNle]LCG[Aun]-OH; thioether N-14) | 0.3 to 9.9 | –
4 | CCCC[C@H]1C(=O)N(C)[C@@H](CCCC)C(=O)N[C@@H](CC(C)C)C(=O)N[C@H](C(=O)NCC(=O)NCC(=O)NCC(=O)NCCCCCCCCCCC(=O)O)CSCC(=O)N[C@@H](Cc2ccc(O)cc2)C(=O)N(C)[C@@H](C)C(=O)N[C@@H](CCC(=O)O)C(=O)N2CCC[C@H]2C(=O)N[C@@H](Cc2cnc[nH]2)C(=O)N[C@@H](CCCCN)C(=O)N2C[C@H](O)C[C@H]2C(=O)N[C@@H](Cc2c[nH]c3ccccc23)C(=O)N[C@@H](CCCCN)C(=O)N[C@@H](Cc2cn(CC(=O)O)c3ccccc23)C(=O)N1C [Example 11092] ({CH2CO}-Y[NMeA]EPHK[Hyp]WK[Trp(1-CH2COOH)][NMeNle][NMeNle]LCGGG[Aun]-OH; thioether N-14) | – | 13.5
5 | CCCC[C@H]1C(=O)N(C)[C@@H](CCCC)C(=O)N[C@@H](CC(C)C)C(=O)N[C@H](C(=O)NCC(=O)N[C@@H](CC(=O)O)C(=O)N[C@@H](CC(=O)O)C(=O)NCCCCCCCCCCCCC(=O)O)CSCC(=O)N[C@@H](Cc2ccc(O)cc2)C(=O)N(C)[C@@H](C)C(=O)N[C@@H](CC(=O)O)C(=O)N2CCC[C@H]2C(=O)N[C@@H](Cc2cnc[nH]2)C(=O)N[C@@H](CCCCN)C(=O)N2C[C@H](O)C[C@H]2C(=O)N[C@@H](Cc2c[nH]c3ccccc23)C(=O)N[C@@H](CCCCN)C(=O)N[C@@H](Cc2cn(CC(=O)O)c3ccccc23)C(=O)N1C [Example 11218] ({CH2CO}-Y[NMeA]DPHK[Hyp]WK[Trp(1-CH2COOH)][NMeNle][NMeNle]LCGDD-{NH(CH2)12COOH}; thioether N-14) | 10 to 99 | –
